Tests used:
[1] = Cytotoxicity against human PANC1 cells at 30 uM cultured in nutrient-deprived medium; assay type: functional; conditions: PANC-1
[2] = Cytotoxicity against human PANC1 cells at 30 uM cultured in dulbecco's modified eagle's medium; assay type: functional; conditions: PANC-1
[3] = Antitumor activity against human MIAPaCa2 cells xenografted in BALB/cAJcl-nu/nu mouse assessed as tumor volume at 8.02 mg/kg, ip measured every fourth day (reference value: 1917.6 +/- 280.3 mm3); assay type: functional, MIA PaCa-2
Mus musculus [4] = test: Toxicity in BALB/cAJcl-nu/nu mouse xenografted with human MIAPaCa2 cells assessed as body weight loss at 8.02 mg/kg, ip measured every fifth day; assay type: organism-based, MIA PaCa-2; conditions: in vivo
[5] = Antitumor activity against human MIAPaCa2 cells xenografted in BALB/cAJcl-nu/nu mouse assessed as reduction in tumor volume at 8.02 mg/kg, ip measured every fourth day relative to control; assay type: functional, MIA PaCa-2
[6] = Cytotoxicity against human PANC1 cells cultured in nutrient-deprived medium; assay type: functional, PANC-1
[7] = Cytotoxicity against human PANC1 cells cultured in dulbecco's modified eagle's medium; assay type: functional, PANC-1
[8] = Antitumor activity against human MIAPaCa2 cells xenografted in BALB/cAJcl-nu/nu mouse assessed as reduction in tumor volume at 7.5 mg/kg, ip measured every fourth day relative to control; assay type: functional, MIA PaCa-2
[9] = Antitumor activity against human MIAPaCa2 cells xenografted in BALB/cAJcl-nu/nu mouse assessed as tumor volume at 7.5 mg/kg, ip measured every fourth day (reference value: 1917.6 +/- 280.3 mm3); assay type: functional, MIA PaCa-2
Mus musculus [10] = test: Toxicity in BALB/cAJcl-nu/nu mouse xenografted with human MIAPaCa2 cells assessed as body weight loss at 7.5 mg/kg, ip measured every fifth day; assay type: organism-based, MIA PaCa-2; conditions: in vivo

Row | SMILES | inhibition at 30 µM [2] | PC50 [6] | further results
1 | S=C1c2c(c3ccccc3n2Cc2ccccc2)CCN1Cc1ccccc1 | < 50% |  | inhibition at 30 µM [1]: < 50%
2 | Oc1cccc(Cn2c3c(c4ccccc42)CCN(Cc2ccccc2)C3=S)c1 | < 50% | 1.96 µM | Activity [3]: 1203.9 mm3; Activity (Mus musculus [4]): Non-toxic; fold change (FC) [5]: 1.6
3 | O=C1c2c(c3ccccc3n2Cc2cccc(O)c2)CCN1Cc1ccccc1 |  | 44.8 µM | 
4 | Fc1ccc(Cn2c3c(c4ccccc42)CCN(Cc2ccccc2)C3=S)cc1 |  |  | inhibition at 30 µM [1]: < 50%; PC50 [7]: 152.6 µM
5 | Oc1cc(O)cc(Cn2c3c(c4ccccc42)CCN(Cc2ccccc2)C3=S)c1 | < 50% | 4.81 µM | 
6 | Oc1ccc(Cn2c3c(c4ccccc42)CCN(Cc2ccccc2)C3=S)cc1 |  | 1.68 µM | PC50 [7]: 20 µM
7 | Oc1ccc(Cn2c3c(c4ccccc42)CCN(Cc2ccccc2)C3=S)cc1O | < 50% | 4.56 µM | 
8 | S=C1c2c(c3ccccc3n2Cc2ccc(Cl)cc2)CCN1Cc1ccccc1 | < 50% |  | inhibition at 30 µM [1]: < 50%
9 | COc1ccc(Cn2c3c(c4ccccc42)CCN(Cc2ccccc2)C3=S)cc1O | < 50% | 7.07 µM | 
10 | COc1ccc(Cn2c3c(c4ccccc42)CCN(Cc2ccccc2)C3=S)cc1 | < 50% |  | inhibition at 30 µM [1]: < 50%
11 | Oc1ccccc1Cn1c2c(c3ccccc31)CCN(Cc1ccccc1)C2=S | < 50% | 2.23 µM | 
12 | Oc1cccc(Cn2ccc3ccccc32)c1 |  | 173.7 µM | 
13 | COc1cc(O)cc(Cn2c3c(c4ccccc42)CCN(Cc2ccccc2)C3=S)c1 | < 50% | 4.2 µM | 
14 | O=C1OCCc2c1n(Cc1cccc(O)c1)c1ccccc21 |  | 131.7 µM | 
15 | COc1cc(Cn2c3c(c4ccccc42)CCN(Cc2ccccc2)C3=S)ccc1O |  | 2.54 µM | PC50 [7]: 8.15 µM
16 | COc1cc(C[C@H]2C(=O)OC[C@@H]2Cc2ccc(OC)c(OC)c2)ccc1O [ARCTIGENIN] | < 50% | 1.27 µM | fold change (FC) [8]: 2.2; Activity [9]: 856.8 mm3; Activity (Mus musculus [10]): Non-toxic
